Assay: Amount of GLCN present following heating (HPAEC-PAD recovery)
Assay type: physicochemical
Description: To determine the amount of GLCN that remains following exposing GLCN beverages to a high temperature, such as those used in pasteurization, the following methods were used.
A beverage sample as described in the preceding examples containing […] of GLCN was dispersed in 25 g of 1.0 N HCl in a 50-mL polypropylene centrifuge tube and capped tightly. The sample was mixed for 30 seconds using a vortex mixer, then placed in a water bath at 37° C. The sample was removed from the water bath at 15-minute intervals, mixed for 30 seconds on a vortex mixer, then returned to the water bath. This cycle was repeated until the sample had been in the water bath for one hour.
After heating, the sample was mixed for 30 seconds on a vortex mixer, then centrifuged for 10 minutes to separate the liquid and solid phases. Fats, oils or lipids in the sample formed a third layer at the top of the tube. A 1-g aliquot of the aqueous sample portion was diluted 100-fold with deionized water, then transferred to an autosampler vial with filter cap.
The free glucosamine in prepared samples was determined using high performance anion-exchange chromatography with pulsed amperometric detection ([…]). The system included an EG40 eluent generator, GP50 gradient pump, AS40 autosampler, LC25 column oven, and ED40 electrochemical detector, all produced by Dionex Corporation (Sunnyvale, Calif.).
The method was adapted from Dionex Corporation Technical Note 40. A Dionex CarboPac PA-20 column was used in place of the PA-10 described in the Technical Note. The eluent was 8 mM KOH at 0.5 mL/min. The column and detector were maintained at 30° C. The injection volume was 10 μL. The standard was glucosamine hydrochloride at 10.8 mg/L. Fermentation broth samples were diluted five-fold with deionized water, ASTM Type II, and filtered through 0.2 μ vial filters in the autosampler. Multiple standards were analyzed before and after each sample set.

- % GlcNHCl Recovered (Grape juice, boil, 5 min): 102%
- % GlcNHCl Recovered (Lemonade, 71 ° C., 20 min): 101%
- % GlcNHCl Recovered (Lemonade, 90 ° C., 20 sec): 101%
- % GlcNHCl Recovered (Lemonade, boil, 5 min): 100%
- % GlcNHCl Recovered (Lemonade, room temperature): 102%
SMILES: N[C@H]1C(O)O[C@H](CO)[C@@H](O)[C@@H]1O (some centres unmarked) [GLCN, glucosamine]

Source: patent US20060058263A1, “Heat pasturized liquids containing glucosamine” (priority 2002, published 2006)
